Assay results as given in ChEMBL document CHEMBL1201862, “PubChem BioAssay data set” (2004).
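How tested: cells in 96-well plates exposed to compound for 48 hours at five concentrations. At the GI50, growth is halved.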 The source made the active and inactive calls. No stated cut-off is given here; in the data, active = GI50 up to about 1.1 µM and inactive = higher.

What was measured:
Assay in all cases: NCI-60 cell line screen, 48 h
HCT-116 = system: HCT-116
UACC-257 = system: UACC-257
RXF 393 = system: RXF 393
OVCAR-4 = system: OVCAR-4
HCC 2998 = system: HCC 2998
SF-268 = system: SF-268
HT-29 = system: HT-29
SNB-75 = system: SNB-75
M14 = system: M14
OVCAR-8 = system: OVCAR-8
SK-MEL-2 = system: SK-MEL-2
RPMI-8226 = system: RPMI-8226
K562 = system: K562
A549 = system: A549
HCT-15 = system: HCT-15
LOX IMVI = system: LOX IMVI
CAKI-1 = system: CAKI-1

CCc1ccccc1NC(=O)/C(CC(=O)c1c(C)[n+]([O-])c2ccccc2[n+]1[O-])=N\NS(=O)(=O)c1ccc(C)cc1
GI50 (HCT-116): 16.8 µM (inactive) | GI50 (UACC-257): 23.9 µM (inactive) | GI50 (RXF 393): > 100 µM (inactive) | GI50 (OVCAR-4): 22.5 µM (inactive) | GI50 (HCC 2998): 47.1 µM (inactive) | GI50 (SF-268): 25.8 µM (inactive) | GI50 (HT-29): 38.7 µM (inactive) | GI50 (SNB-75): > 100 µM (inactive) | GI50 (M14): 32.8 µM (inactive) | GI50 (OVCAR-8): 27 µM (inactive) | GI50 (SK-MEL-2): > 100 µM (inactive) | GI50 (RPMI-8226): 12.2 µM (inactive) | GI50 (K562): 27.2 µM (inactive) | GI50 (A549): 34.9 µM (inactive) | GI50 (HCT-15): 33.7 µM

COCC(O)CN1C(N)=NC(O)C1O (centres undefined)
GI50 (UACC-257): > 100 µM (inactive) | GI50 (RXF 393): > 100 µM (inactive) | GI50 (LOX IMVI): > 100 µM (inactive) | GI50 (HCC 2998): > 100 µM (inactive) | GI50 (SF-268): > 100 µM (inactive) | GI50 (HT-29): > 100 µM (inactive) | GI50 (SNB-75): > 100 µM (inactive) | GI50 (M14): > 100 µM (inactive) | GI50 (OVCAR-8): > 100 µM (inactive) | GI50 (SK-MEL-2): > 100 µM (inactive) | GI50 (A549): > 100 µM (inactive) | GI50 (CAKI-1): > 100 µM (inactive)

CCCCN1C(=O)C2c3[nH]c4ccccc4c3C3CCCCC3C2C1=O.CCCCN1C(=O)C2c3[nH]c4ccccc4c3[C@@H]3CCCCC3C2C1=O (centres undefined)
GI50 (HCT-116): 9.42 µM (inactive) | GI50 (OVCAR-4): 2.38 µM (inactive) | GI50 (LOX IMVI): 10.9 µM (inactive) | GI50 (HCC 2998): 8.85 µM (inactive) | GI50 (SF-268): 17.9 µM (inactive) | GI50 (HT-29): 28.8 µM (inactive) | GI50 (SNB-75): 7.11 µM (inactive) | GI50 (M14): 13.4 µM (inactive) | GI50 (OVCAR-8): 11.8 µM (inactive) | GI50 (K562): 14.7 µM (inactive) | GI50 (A549): 13.9 µM (inactive) | GI50 (CAKI-1): 6.18 µM (inactive) | GI50 (HCT-15): 29.4 µM

CC(=O)OC(=O)O/C=C\CCl
GI50 (HCT-116): > 100 µM (inactive) | GI50 (UACC-257): > 100 µM (inactive) | GI50 (RXF 393): > 100 µM (inactive) | GI50 (OVCAR-4): > 100 µM (inactive) | GI50 (HCC 2998): > 100 µM (inactive) | GI50 (SF-268): > 100 µM (inactive) | GI50 (SNB-75): > 100 µM (inactive) | GI50 (M14): > 100 µM (inactive) | GI50 (OVCAR-8): > 100 µM (inactive) | GI50 (SK-MEL-2): > 100 µM (inactive) | GI50 (RPMI-8226): > 100 µM (inactive) | GI50 (K562): > 100 µM (inactive) | GI50 (A549): > 100 µM (inactive) | GI50 (CAKI-1): > 100 µM (inactive) | GI50 (HCT-15): > 100 µM

C[n+]1cccc(NC(=O)c2ccc(NC(=O)C34CCC(C(=O)Nc5ccc(C(=O)Nc6ccc[n+](C)c6)cc5)(CC3)CC4)cc2)c1
GI50 (HCT-116): 33.5 µM (inactive) | GI50 (UACC-257): 15.7 µM (inactive) | GI50 (RXF 393): 22.1 µM (inactive) | GI50 (OVCAR-4): > 100 µM (inactive) | GI50 (LOX IMVI): 38.5 µM (inactive) | GI50 (SF-268): 16.4 µM (inactive) | GI50 (HT-29): 45.9 µM (inactive) | GI50 (SNB-75): 2.84 µM (inactive) | GI50 (M14): > 100 µM (inactive) | GI50 (OVCAR-8): 42.7 µM (inactive) | GI50 (RPMI-8226): 3.92 µM (inactive) | GI50 (K562): 2.55 µM (inactive) | GI50 (A549): 22.5 µM (inactive) | GI50 (HCT-15): 58.2 µM

Cc1ccc(NC(=O)c2cccc([N+](=O)[O-])c2O)c([N+](=O)[O-])c1
GI50 (HCT-116): 9.38 µM (inactive) | GI50 (UACC-257): 16.2 µM (inactive) | GI50 (RXF 393): 11.3 µM (inactive) | GI50 (OVCAR-4): 13.5 µM (inactive) | GI50 (LOX IMVI): 11.5 µM (inactive) | GI50 (HCC 2998): 15.9 µM (inactive) | GI50 (SF-268): 17.9 µM (inactive) | GI50 (HT-29): 12.1 µM (inactive) | GI50 (SNB-75): 13.7 µM (inactive) | GI50 (M14): 16.7 µM (inactive) | GI50 (OVCAR-8): 12.5 µM (inactive) | GI50 (RPMI-8226): 8.69 µM (inactive) | GI50 (K562): 18.8 µM (inactive) | GI50 (A549): 21.6 µM (inactive) | GI50 (CAKI-1): 29.5 µM (inactive) | GI50 (HCT-15): 14.4 µM

O=C1OC(c2ccccc2)C2CC3CC4(CCC3CN12)OCCO4 (centres undefined)
GI50 (HCT-116): > 100 µM (inactive) | GI50 (UACC-257): > 100 µM (inactive) | GI50 (RXF 393): > 100 µM (inactive) | GI50 (OVCAR-4): 88.5 µM (inactive) | GI50 (LOX IMVI): > 100 µM (inactive) | GI50 (SF-268): > 100 µM (inactive) | GI50 (HT-29): > 100 µM (inactive) | GI50 (SNB-75): 52 µM (inactive) | GI50 (M14): > 100 µM (inactive) | GI50 (OVCAR-8): > 100 µM (inactive) | GI50 (SK-MEL-2): > 100 µM (inactive) | GI50 (RPMI-8226): 94 µM (inactive) | GI50 (K562): 45.9 µM (inactive) | GI50 (A549): > 100 µM (inactive) | GI50 (CAKI-1): > 100 µM (inactive) | GI50 (HCT-15): > 100 µM

C/C(CC(=O)Nc1ccc(Cl)c(Cl)c1)=N/NC(=O)C[n+]1ccccc1
GI50 (HCT-116): > 100 µM (inactive) | GI50 (UACC-257): > 100 µM (inactive) | GI50 (RXF 393): > 100 µM (inactive) | GI50 (OVCAR-4): > 100 µM (inactive) | GI50 (LOX IMVI): 18.8 µM (inactive) | GI50 (HCC 2998): > 100 µM (inactive) | GI50 (SF-268): > 100 µM (inactive) | GI50 (HT-29): > 100 µM (inactive) | GI50 (M14): > 100 µM (inactive) | GI50 (OVCAR-8): > 100 µM (inactive) | GI50 (SK-MEL-2): > 100 µM (inactive) | GI50 (RPMI-8226): 32.3 µM (inactive) | GI50 (K562): 45.8 µM (inactive) | GI50 (A549): > 100 µM (inactive) | GI50 (CAKI-1): > 100 µM (inactive) | GI50 (HCT-15): 30.5 µM

O=c1cccccc1NCCCNc1cccccc1=O
GI50 (HCT-116): > 100 µM (inactive) | GI50 (UACC-257): > 100 µM (inactive) | GI50 (RXF 393): > 100 µM (inactive) | GI50 (LOX IMVI): > 100 µM (inactive) | GI50 (SF-268): > 100 µM (inactive) | GI50 (HT-29): 88.3 µM (inactive) | GI50 (M14): > 100 µM (inactive) | GI50 (OVCAR-8): > 100 µM (inactive) | GI50 (SK-MEL-2): > 100 µM (inactive) | GI50 (RPMI-8226): > 100 µM (inactive) | GI50 (K562): > 100 µM (inactive) | GI50 (A549): > 100 µM (inactive) | GI50 (CAKI-1): > 100 µM (inactive) | GI50 (HCT-15): > 100 µM

Cc1cc(Cl)ccc1N1C(=O)C(=O)C(c2nc3ccccc3o2)C(=O)C1=O
GI50 (HCT-116): 46.5 µM (inactive) | GI50 (UACC-257): 71 µM (inactive) | GI50 (RXF 393): > 100 µM (inactive) | GI50 (OVCAR-4): > 100 µM (inactive) | GI50 (HCC 2998): > 100 µM (inactive) | GI50 (SF-268): > 100 µM (inactive) | GI50 (HT-29): 65.8 µM (inactive) | GI50 (SNB-75): 63.4 µM (inactive) | GI50 (M14): 67 µM (inactive) | GI50 (OVCAR-8): > 100 µM (inactive) | GI50 (SK-MEL-2): > 100 µM (inactive) | GI50 (A549): > 100 µM (inactive) | GI50 (CAKI-1): > 100 µM (inactive) | GI50 (HCT-15): > 100 µM

COc1cc(C2C(C(=O)Nc3cc(F)c(F)cc3F)=C(C)NC(C)=C2C(=O)Nc2cc(F)c(F)cc2F)ccc1O
GI50 (UACC-257): 17.9 µM (inactive) | GI50 (RXF 393): 10.6 µM (inactive) | GI50 (OVCAR-4): 17.3 µM (inactive) | GI50 (LOX IMVI): 15.2 µM (inactive) | GI50 (HCC 2998): 13.9 µM (inactive) | GI50 (SF-268): 15 µM (inactive) | GI50 (HT-29): 29 µM (inactive) | GI50 (SNB-75): 2.36 µM (inactive) | GI50 (M14): 25.2 µM (inactive) | GI50 (OVCAR-8): 25.4 µM (inactive) | GI50 (SK-MEL-2): 22.5 µM (inactive) | GI50 (RPMI-8226): 16.3 µM (inactive) | GI50 (K562): 18.4 µM (inactive) | GI50 (A549): 24.6 µM (inactive) | GI50 (CAKI-1): 12.3 µM (inactive)

COc1ccc(/C=[N+](\[O-])[C@H](COCc2ccccc2)c2ccccc2)cc1
GI50 (HCT-116): 43.3 µM (inactive) | GI50 (UACC-257): > 100 µM (inactive) | GI50 (RXF 393): 98.9 µM (inactive) | GI50 (LOX IMVI): 89.9 µM (inactive) | GI50 (HCC 2998): > 100 µM (inactive) | GI50 (SF-268): 67.5 µM (inactive) | GI50 (HT-29): 52.1 µM (inactive) | GI50 (SNB-75): > 100 µM (inactive) | GI50 (OVCAR-8): > 100 µM (inactive) | GI50 (SK-MEL-2): 30.3 µM (inactive) | GI50 (RPMI-8226): 15.7 µM (inactive) | GI50 (K562): 45.3 µM (inactive) | GI50 (A549): > 10 µM (inactive)

CCN(CC)c1ccc(/N=N/c2ccc([N+](=O)[O-])cc2OC(=O)/C=C/c2ccccc2)c(OC(=O)/C=C/c2ccccc2)c1
GI50 (HCT-116): 3.55 µM (inactive) | GI50 (UACC-257): 2.23 µM (inactive) | GI50 (RXF 393): 42.9 µM (inactive) | GI50 (OVCAR-4): 21 µM (inactive) | GI50 (LOX IMVI): 4.74 µM (inactive) | GI50 (HCC 2998): 12.7 µM (inactive) | GI50 (SF-268): 1.93 µM (inactive) | GI50 (HT-29): > 100 µM (inactive) | GI50 (SNB-75): 8.04 µM (inactive) | GI50 (M14): 12.7 µM (inactive) | GI50 (OVCAR-8): 6.27 µM (inactive) | GI50 (SK-MEL-2): > 95.3 µM (inactive) | GI50 (K562): > 68.9 µM (inactive) | GI50 (A549): 8.2 µM (inactive) | GI50 (CAKI-1): 84.1 µM (inactive) | GI50 (HCT-15): 19.5 µM
